In PMC2823129 (Lipids, 2009):

Test system: mitochondrial GPAT (GPAT1-like)
Experiment: […]glycerol-3-phosphate incorporation into organic phase, liquid scintillation
Type: biochemical, Macrobrachium borellii
Conditions: read-out: apparent Km; mitochondrial fraction; 0.8 mM glycerol-3-phosphate, 4 mM MgCl2, 2 mg/ml BSA, 8 mM NaF, 1 mM DTT, 75 mM Tris-HCl pH 7.4, 30°C

Km: 31.2 µM
Structure (SMILES): CCCCCCCC/C=C\CCCCCCCC(=O)SCCNC(=O)CCNC(=O)[C@H](O)C(C)(C)COP(=O)(O)OP(=O)(O)OC[C@H]1O[C@@H](n2cnc3c(N)ncnc32)[C@H](O)[C@@H]1OP(=O)(O)O [oleoyl-CoA]
